One experiment relates to SW620 cells. Kind of experiment: Cellular phospho-ERK assay, SW620 cells (homozygous KRAS-G12V). The following applies: Homo sapiens, read-out: SW620 pERK IC50. Type of experiment: cell-based. As for the experimental part: (§1) Procedure for Cellular Phospho-ERK Assay in KRAS Wild Type and Mutant (G12D, G12V) Cell Lines
(§2) MKN-1 cells (JCRB JCRB0252) containing amplified wild-type KRAS, were cultured in growth medium that contains RPMI 1640-GlutaMAX™-I (ThermoFisher Scientific 61870) containing 10% heat inactivated fetal bovine serum (ThermoFisher Scientific 10091148), 1 mM sodium pyruvate and 10 mM HEPES. PANC08.13 cells (ATCC® CRL-2551™), containing homozygous KRAS-G12D activating mutation, were cultured in growth medium made of RPMI1640-GlutaMAX™-I (ThermoFisher Scientific 61870) containing 15% heat inactivated fetal bovine serum (ThermoFisher Scientific 10091148)). AsPC-1 cells (ATCC® CRL-1682™), containing homozygous KRAS-G12D activating mutation, were cultured in T150 flask in growth medium (RPMI medium 1640-GlutaMAX™-I (ThermoFisher Scientific 61870) containing 10% fetal bovine serum (ThermoFisher Scientific 10091148)). SW620 cells (ATCC® […]), containing homozygous KRAS-G12V activating mutation, were cultured in growth medium that contains RPMI 1640-GlutaMAX™-I (ThermoFisher Scientific 61870) containing 10% heat inactivated fetal bovine serum (ThermoFisher Scientific 10091148).
(§3) Cells for the assay were harvested in growth medium after TrypLE (ThermoFisher scientific 12604021) digestion and were seeded in a 384-well collagen coated cell culture plate (Corning 356702) at a density of 10,000-15,000 cells/20 μL/well, and incubated at 37° C., 5% CO2 overnight. The compound (with 10 mM stock concentration) dose-response titrations were prepared [30 μM final ERK detection assay concentration and 1:3 dilutions, 10-point dose response] and appropriate amounts (270 nL) of test compounds were dispensed in a 384-well intermediate plate using an Echo 550 liquid handler. 30 μL/well of RPMI medium 1640-GlutaMAX™—I was added to the intermediate plate and the contents of the intermediate plate (10 μL/well) were then transferred to the 384-well collagen coated cell culture plate, which was incubated at 37° C., 5% CO2 for 2 hours. After removal of medium from the collagen coated cell culture plate, cells were lysed in lysis buffer from Alpha SureFire® Ultra™ Multiplex p-ERK and total ERK assay kit (PerkinElmer MPSU-PTERK) containing Halt™ Protease and Phosphatase inhibitor cocktail (ThermoFisher Scientific 78446) at room temperature with constant shaking at 300 rpm for 30 minutes. The cell lysates were then transferred to an OptiPlate-384 plate (PerkinElmer 6005620), and the phosphorylation of ERK (p-ERK) and total ERK levels were detected by Alpha SureFire® Ultra™ Multiplex p-EEK kit and total ERK assay kit (PerkinElmer MPSU-PTERK) following the manufacturer's protocol. Assay plates were read on a En Vision Multimode Plate Reader (PerkinElmer), and the ratio of p-ERK vs. total ERK in each well was used as the final readout. Dose response curves were analyzed using a 4-parameter logistic model to calculate IC50 values using Spotfire software.

In the next experiment the test system is AsPC-1 cells. Kind of experiment: Cellular phospho-ERK assay, AsPC-1 cells (homozygous KRAS-G12D). In kind it is cell-based. Particulars: Homo sapiens, ASPC1, 2 h, read-out: AsPC1 pERK IC50. The method in brief: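 Cells were seeded overnight, then treated 2 h at 37° C with compound in a 10-point, 1:3 titration from 30 μM top final concentration. Lysates were assayed by AlphaLISA SureFire Ultra for p-ERK and total ERK. IC50 came from a 4-parameter logistic fit of the p-ERK/total ERK ratio.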

The test system of a further experiment is MKN-1 cells. The experiment in a line: Cellular phospho-ERK assay, MKN-1 cells (amplified wild-type KRAS). In kind it is cell-based. The following applies: Homo sapiens, read-out: MKN1 pERK IC50. The method, then: as §1, §2, §3
The target in another experiment is KRAS-WT (Homo sapiens, UniProt P01116). Kind of experiment: SOS-catalyzed nucleotide exchange assay (Procedure A, TR-FRET), KRAS-WT. In kind it is biochemical. Particulars: nucleotide exchange, read-out: KRAS WT GNE IC50. In outline:
(§4)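 TR-FRET readout (520/495 nm) of SOS-driven exchange of Bodipy-GDP for unlabeled GTP (3 mM) on biotinylated, Tb-streptavidin-bound RAS, after 60 min compound preincubation at room temperature. Exchange times and RAS/SOS levels: 60 min for WT (1/40 nM), G12C triple mutant (3/40 nM), NRAS (1.25/40 nM); 90 min for G12V (1.25/160 nM). Four-parameter logistic fits on normalized effect.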
A general note: TR-FRET usually uses a lanthanide donor and a delayed reading to cut background.

Another experiment addresses KRAS-G12D (Homo sapiens, UniProt P01116, G12D). Kind of experiment: SOS-catalyzed nucleotide exchange assay (Procedure A, TR-FRET), KRAS-G12D. Particulars: nucleotide exchange, read-out: KRAS G12D GNE IC50. In kind it is biochemical. In outline:
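Signal ratio (520/495 nm, excitation 340 nm) reports Bodipy-GDP retention on biotinylated RAS after SOS-catalyzed exchange with 3 mM GTP. SOS was 40 nM, except 160 nM for G12V. Room-temperature exchange lasted 60 min (90 min for G12V), following a 60 min compound preincubation.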

A further experiment has as its target KRAS-G12V (Homo sapiens, UniProt P01116, G12V). Kind of experiment: SOS-catalyzed nucleotide exchange assay (Procedure A, TR-FRET), KRAS-G12V. The following applies: nucleotide exchange, read-out: KRAS G12V GNE IC50. Type of experiment: biochemical. In outline: as §4
The mark [1] stands for this setting: SW-620, 2 hours compound incubation.
[2] abbreviates: amplified wild-type KRAS, 2 hours.

Structures are written as SMILES. Like-named read-outs stand apart in the source and are kept apart here.

The source of these data is patent US20260176289A1, “SMALL MOLECULE INHIBITORS OF KRAS PROTEINS” (Merck Sharp & Dohme LLC, priority 2022, published 2026).

KRAS-G12D, sequence (P01116 with tags, fused parts or gaps isoform P01116-2 G12D): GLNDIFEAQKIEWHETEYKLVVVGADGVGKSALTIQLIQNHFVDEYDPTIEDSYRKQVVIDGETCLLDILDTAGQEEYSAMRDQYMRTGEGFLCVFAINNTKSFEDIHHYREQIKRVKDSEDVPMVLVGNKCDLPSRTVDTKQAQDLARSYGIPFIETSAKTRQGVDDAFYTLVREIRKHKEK
KRAS-WT, sequence (P01116 with tags, fused parts or gaps isoform P01116-2): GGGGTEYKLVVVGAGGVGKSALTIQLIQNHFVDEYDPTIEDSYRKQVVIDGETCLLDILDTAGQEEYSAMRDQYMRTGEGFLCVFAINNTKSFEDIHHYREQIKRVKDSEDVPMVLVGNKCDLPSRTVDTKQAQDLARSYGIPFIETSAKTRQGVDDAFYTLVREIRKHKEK
KRAS-G12V, sequence (P01116 with tags, fused parts or gaps isoform P01116-2 G12V): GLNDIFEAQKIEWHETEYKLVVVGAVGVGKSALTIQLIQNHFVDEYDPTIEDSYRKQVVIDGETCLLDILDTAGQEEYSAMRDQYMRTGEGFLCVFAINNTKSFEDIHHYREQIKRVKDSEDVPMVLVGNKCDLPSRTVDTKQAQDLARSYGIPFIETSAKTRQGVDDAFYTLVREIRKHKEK

Turning to `CC1(F)CCN(C[C@@]2(COc3nc(N4CCOC[C@@](C)(O)C4)c4c(n3)sc3c(-c5c(C6(F)CC6)c(Cl)cc6[nH]ncc56)nccc34)CC2(F)F)CC1` [Ex-232, (6S)-4-(8-(6-chloro-5-(1-fluorocyclopropyl)-1H-indazol-4-yl)-2-(((R)-2,2-difluoro-1-((4-fluoro-4-methylpiperidin-1-yl)methyl)cyclopropyl)metho-xy)pyrido[4′,3′:4,5]thieno[2,3-d]pyrimidin-4-yl)-6-methyl-1,4-oxazepan-6-ol], the IC50 is 117 nM in the experiment on SW620 cells (setting [1]); 188 nM in the experiment with AsPC-1 cells (2 hours compound incubation); 84.2 nM in the experiment with MKN-1 cells (2 hours compound incubation); 762 nM at KRAS-WT; 104 nM at KRAS-G12D; 197 nM on KRAS-G12V.

Regarding `C/C=C/c1c(C)cc2[nH]ncc2c1-c1nccc2c1sc1nc(OC[C@@]34CCCN3C[C@H](F)C4)nc(N3CCOC[C@@](C)(O)C3)c12` [Ex-64, (6S)-4-(2-(((2R,7aS)-2-fluorotetrahydro-1H-pyrrolizin-7a(5H)-yl)methoxy)-8-(6-methyl-5-((E)-prop-1-en-1-yl)-1H-indazol-4-yl)pyrido[4′,3′:4,5]thieno [2,3-d]pyrimidin-4-yl)-6-methyl-1,4-oxazepan-6-ol], the IC50 is 294 nM in the experiment with SW620 cells (SW-620, KRAS-G12V, 2 hours); 486 nM in the experiment on AsPC-1 cells (KRAS-G12D, 2 hours); 389 nM in the experiment on MKN-1 cells (setting [2]); 250 nM at KRAS-WT; 99.1 nM on KRAS-G12D; 163 nM on KRAS-G12V.

Consider `C[C@@]1(O)COCCN(c2nc(OC[C@@]34CCCN3C[C@H](F)C4)nc3sc4c(-c5c(C6(F)CC6)c(C(F)(F)F)cc6[nH]ncc56)nccc4c23)C1` [Ex-55, (6S)-4-(8-(5-(1-fluorocyclopropyl)-6-(trifluoromethyl)-1H-indazol-4-yl)-2-(((2R,7aS)-2-fluorotetrahydro-1H-pyrrolizin-7a(5H)-yl)methoxy)pyrido[4′,3′:4,5]thi-eno[2,3-d]pyrimidin-4-yl)-6-methyl-1,4-oxazepan-6-ol], for which the IC50 in the experiment on SW620 cells (SW-620, KRAS-G12V, 2 hours) was 45.9 nM; in the experiment on AsPC-1 cells (KRAS-G12D, 2 hours), 107 nM; in the experiment with MKN-1 cells (setting [2]) it was 45 nM; at KRAS-WT, 26.4 nM; on KRAS-G12D, 9.34 nM; at KRAS-G12V, 18.2 nM.

Take `C[C@@]1(O)COCCN(c2nc(OC[C@]34C[C@@H](F)CN3CC3(CC3)C4)nc3sc4c(-c5c(C6CC6)c(Cl)cc6[nH]ncc56)nccc4c23)C1` [Ex-220, (6S)-4-(8-(6-chloro-5-cyclopropyl-1H-indazol-4-yl)-2-(((6R,7a′S)-6′-fluorodihydro-1H, 3H-spiro[cyclopro-pane-1,2′-pyrrol-izin]7a′(5′H)-yl)-methoxy)pyrido [4′,3′:4,5]thieno[2,3-d]pyrimidin-4-yl)-6-methyl-1,4-oxaze-pan-6-ol]: the IC50 turned out to be 130 nM in the experiment with SW620 cells (setting [1]); 176 nM with AsPC-1 cells (2 hours compound incubation); 171 nM with MKN-1 cells (2 hours compound incubation); 72.3 nM on KRAS-WT; 27.8 nM at KRAS-G12D; 70.6 nM at KRAS-G12V.

For the compound `C#C[C@@H]1CCCc2cc3[nH]ncc3c(-c3nccc4c3sc3nc(OC[C@@]56CCCN5C[C@H](F)C6)nc(N5CCOC[C@@](C)(O)C5)c34)c21` [Ex-175], the IC50 was 278 nM with SW620 cells (setting [1]); 856 nM in the experiment on AsPC-1 cells (2 hours compound incubation); 324 nM in the experiment on MKN-1 cells (2 hours compound incubation); 186 nM on KRAS-WT; 82.1 nM at KRAS-G12D; 66.3 nM at KRAS-G12V.

With `Cc1cc2[nH]ncc2c(-c2nccc3c2sc2nc(OC[C@@]45CCCN4C[C@H](F)C5)nc(N4CCOC[C@@](C)(O)C4)c23)c1C1CC1(F)F` (stereo partly drawn) [Ex-63, (6S)-4-(8-(5-(2,2-difluorocyclopropyl)-6-methyl-1H-indazol-4-yl)-2-(((2R,7aS)-2-fluorotetrahydro-1H-pyrrolizin-7a(5H)-yl)methoxy)pyrido[4′,3′:4,5]thi-eno[2,3-d]pyrimidin-4-yl)-6-methyl-1,4-oxazepan-6-ol], the IC50 with SW620 cells (SW-620, KRAS-G12V, 2 hours) came to 121 nM; in the experiment with AsPC-1 cells (KRAS-G12D, 2 hours) it was 185 nM; in the experiment with MKN-1 cells (setting [2]), 114 nM; on KRAS-WT it was 55.2 nM; at KRAS-G12D, 19.6 nM; at KRAS-G12V, 39.3 nM.

`C[C@@H]1CCCc2cc3[nH]ncc3c(-c3nccc4c3sc3nc(OC[C@@]56CCCN5C[C@H](F)C6)nc(N5CCOC[C@@](C)(O)C5)c34)c21` [Ex-116]: the IC50 with SW620 cells (SW-620, KRAS-G12V, 2 hours) is 36.4 nM; with AsPC-1 cells (KRAS-G12D, 2 hours) it was 56.6 nM; in the experiment with MKN-1 cells (setting [2]) it was 46.4 nM; at KRAS-WT, 9.84 nM; at KRAS-G12D it was 4.87 nM; at KRAS-G12V it was 17.9 nM.

As for `CCC1(O)COCCN(c2nc(OC[C@@]34CCCN3C[C@H](F)C4)nc3sc4c(-c5c(C(F)(F)F)c(C)cc6[nH]ncc56)nccc4c23)C1` (stereo partly drawn) [Ex-201, 6-ethyl-4-(2-(((2R,7aS)-2-fluorotetrahydro-1H-pyr-rolizin-7a(5H)-yl)meth-oxy)-8-(6-methyl-5-(tri-fluoromethyl)-1H-indazol-4-yl)pyrido[4′,3′:4,5]thieno[2,3-d]pyrimidin-4-yl)-1,4-oxazepan-6-ol], the IC50 with SW620 cells (setting [1]) worked out at 220 nM; in the experiment with AsPC-1 cells (2 hours compound incubation), 923 nM; in the experiment with MKN-1 cells (2 hours compound incubation), 373 nM; at KRAS-WT, 404 nM; on KRAS-G12D, 285 nM; at KRAS-G12V, 206 nM.

Regarding `CN1CCC[C@@]2(COc3nc(N4CCOC[C@@](C)(O)C4)c4c(n3)sc3c(-c5c(C6CC6)c(Cl)cc6[nH]ncc56)nccc34)CCC[C@@H]12` [Ex-217, (6S)-4-(8-(6-chloro-5-cyclopropyl-1H-indazol-4-yl)-2-(((4aS,7aR)-1-meth-yloctahydro-4aH-cyclopenta[b]pyridin-4a-yl)meth-oxy)pyrido[4′,3′:4,5]thieno[2,3-d]pyrimi-din-4-yl)-6-methyl-1,4-oxazepan-6-ol], the 50% inhibitory concentration (IC50) with SW620 cells (setting [1]) worked out at 10.9 nM; in the experiment with AsPC-1 cells (2 hours compound incubation), 47.7 nM; with MKN-1 cells (2 hours compound incubation) it was 46.9 nM; on KRAS-WT, 8.85 nM; on KRAS-G12D, 3.46 nM; at KRAS-G12V, 13.1 nM.

With `C[C@@]1(O)COCCN(c2nc(OC[C@]3(CN4CCC4)CC3(F)F)nc3sc4c(-c5c(C6(F)CC6)c(Cl)cc6[nH]ncc56)nccc4c23)C1` [Ex-239, (6S)-4-(2-(((R)-1-(azetidin-1-ylmethyl)-2,2-difluorocyclopropyl)methoxy)-8-(6-chloro-5-(1-fluorocyclopropyl)-1H-indazol-4-yl)pyrido[4′,3:′4,5]thieno[2,3-d]pyrimidin-4-yl)-6-methyl-1,4-oxazepan-6-ol], the IC50 with SW620 cells (setting [1]) stood at 29.4 nM; in the experiment on AsPC-1 cells (2 hours compound incubation), 54.5 nM; in the experiment on MKN-1 cells (2 hours compound incubation) it was 33.7 nM; at KRAS-WT, 8.2 nM; on KRAS-G12D, 1.85 nM; at KRAS-G12V it was 11.4 nM.

In general, IC50 refers to the midpoint of a concentration-inhibition curve.
